Legend:
DIM2 [1] = test: In vitro DNA methylation kinetics, substrate specificity of DIM2; type: biochemical, Neurospora Crassa; set-up: unit not given here; conditions: Sup Fig. 1f, 0.25 µM DIM2, 1.0 µM DNA, 1.0 µM H3K9me3 peptide, 0.5 µM HP1, pH 8.0, 30 °C
Method: (§1) In vitro DNA methylation assay was performed in a 20-µL reaction mixture. For the substrate specificity assay, the following DNA duplexes were used as substrates: CG DNA (Upper strand: 5’-[…]-3’), hemimethylated CG DNA (Upper strand: 5’-TAAATTTXGATTAATAAT-3’, X = 5-methylcytosine; Lower strand: 5’-[…] -3’), CHG DNA (Upper strand: 5’-[…]-3’), and CHH DNA (Upper strand: 5’-[…]-3’). The reaction mixture contains 0.25 µM DIM2, 1.0 µM DNA duplex, 1.0 µM synthesized H3K9me3 peptide (residues 1-24 of H3 plus a C-terminal tryptophan), 0.5 µM HP1, and 0.56 µM S-adenosyl-L-[methyl-^3H] methionine with a specific activity of 18 Ci/mmol (PerkinElmer) in buffer containing 50 mM Tris-HCl (pH 8.0), 100 mM NaCl, 0.05% β-mercaptoethanol, 5% glycerol, and 200 µg/mL BSA. For the rest of the DNA methylation assay, each reaction mixture contains 1.0 µM DIM2, 1.0 µM (CAT)12/(ATG)12 DNA duplex and 0.56 µM S-adenosyl-L-[methyl-^3H] methionine with a specific activity of 18 Ci/mmol (PerkinElmer) in buffer containing 50 mM Tris-HCl (pH 8.0), 100 mM NaCl, 0.05% β-mercaptoethanol, 5% glycerol, and 200 µg/mL BSA. In addition, 1.0 µM synthesized H3K9me3 or H3K9me0 peptide (residues 1-24 of H3 plus a C-terminal tryptophan) and/or 2 µM HP1 protein was included to evaluate the effect of H3 and HP1 regulation. The reaction mixture was incubated at 30 °C for 30 min, unless indicated otherwise, before being quenched by the addition of 5 µL of 10 mM cold SAM. After the reaction, 8 μL of the mixtures was loaded onto Hybond N nylon membrane (GE Healthcare), which was left to dry out at room temperature. The membrane was subsequently washed with 0.2 M ammonium bicarbonate (pH 8.2) two times (20 min per time), deionized water (20 min) once, and 95% ethanol (5 min) once. After air dried, the membrane carrying each sample was transferred into a vial containing 3 mL scintillation buffer (Fisher). The tritium scintillation was measured and recorded by a Beckman LS6500 counter. Each the reaction was repeated three times.

DIM2 [2] = test: In vitro DNA methylation assay: effect of HP1 and H3 peptides on DIM2 activity; type: biochemical, Neurospora Crassa; set-up: DNA methylation activity of DIM2 in presence of HP1, WT or W98A: unit not given beside the values; conditions: for effect on DNA methylation activity of DIM2 (in words): 36-mer DNA duplex, 1.0 µM peptide and/or 2 µM HP1; for DNA methylation activity of DIM2 in presence of HP1, WT or W98A: Sup Fig. 1e, (CTA)12/(TAG)12 DNA duplex, 1.0 µM DIM2, 2 µM HP1, 30 °C, 30 min, pH 8.0
Method: as §1, with “1.0 µM (CAT)12/(ATG)12 DNA duplex and 0.56 µM S-adenosyl-L-[methyl-^3H]” left out

[3] = reaction time 0 min, replicate 1
[4] = reaction time 0 min, replicate 2
[5] = reaction time 0 min, replicate 3
[6] = reaction time 15 min, replicate 1
[7] = reaction time 15 min, replicate 2
[8] = reaction time 15 min, replicate 3
[9] = reaction time 30 min, replicate 1
[10] = reaction time 30 min, replicate 2
[11] = reaction time 30 min, replicate 3

Substance	DNA methylation kinetics (DIM2 [1]; [3])	DNA methylation kinetics (DIM2 [1]; [4])	DNA methylation kinetics (DIM2 [1]; [5])	DNA methylation kinetics (DIM2 [1]; [6])	DNA methylation kinetics (DIM2 [1]; [7])	DNA methylation kinetics (DIM2 [1]; [8])	DNA methylation kinetics (DIM2 [1]; [9])	DNA methylation kinetics (DIM2 [1]; [10])	DNA methylation kinetics (DIM2 [1]; [11])	effect on DNA methylation activity of DIM2 (in words) (DIM2 [2])	DNA methylation activity of DIM2 in presence of HP1, WT or W98A (DIM2 [2]; replicate 1)	DNA methylation activity of DIM2 in presence of HP1, WT or W98A (DIM2 [2]; replicate 2)	DNA methylation activity of DIM2 in presence of HP1, WT or W98A (DIM2 [2]; replicate 3)
CG: CG DNA (Upper strand: 5’-ATTATTAATCGAAATTTA-3’) (DNA, backbone not given here; DNA duplex substrate for methylation assay)	0.019	0.03	0.038	0.476	0.828	0.621	1.426	1.174	1.115	–	–	–	–
CHG: CHG DNA (Upper strand: 5’-ATTATTAATCTGAATTTA-3’) (DNA, backbone not given here; DNA duplex substrate for methylation assay)	0.037	0.044	0.013	1.24	1.116	1.338	1.866	1.872	1.906	–	–	–	–
CHH: CHH DNA (Upper strand: 5’-ATTATTAATCTAAATTTA-3’) (DNA, backbone not given here; DNA duplex substrate for methylation assay)	0.004	0.003	0.026	0.184	0.154	0.169	0.346	0.291	0.235	–	–	–	–
H3_1-24K9me0: H3K9me0 peptide (residues 1-24 of H3 plus a C-terminal tryptophan), unmethylated H3 K9	–	–	–	–	–	–	–	–	–	failed to synergize with HP1 to boost the DNA methylation activity of DIM2	–	–	–
HP1WT: Neurospora Crassa HP1 (residues 1-266; Q1K612)	–	–	–	–	–	–	–	–	–	slight but notable activity of DIM2	22.922	23.125	22.99

Reference: PMC11315935, “Multi-layered heterochromatin interaction as a switch for DIM2-mediated DNA methylation” (Nature Communications, 2024)
